Reference: PubChem BioAssay AID1963826 (Molecular Pharmacology Branch, DTP, NCI, 2024)

System: 926638-142-R-J1-PDC complex spheroid viability
Test: Anticancer human tumor 926638-142-R-J1-PDC patient-derived endometrial carcinoma cell line growth inhibition [POLQ]
Settings: for IC50: curve of first compound; for viability, T/C: stronger effect = lower value
How it was run: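 Three-cell-type spheroids modelling solid tumor plus stroma served as the readout system; POL inhibitors were tested individually and in combination, concentration ranges set by clinical Cmax where known.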

[1] = second compound 0.0316 µM, first compound 0.0316 µM
[2] = second compound 0.0316 µM, first compound 0.1 µM
[3] = second compound 0.0316 µM, first compound 0.316 µM
[4] = second compound 0.0316 µM, first compound 1 µM
[5] = second compound 0.0316 µM, first compound 3.16 µM
[6] = second compound 0.0316 µM, first compound 10 µM
[7] = second compound 0.1 µM, first compound 0.0316 µM
[8] = second compound 0.1 µM, first compound 0.1 µM
[9] = second compound 0.1 µM, first compound 0.316 µM
[10] = second compound 0.1 µM, first compound 1 µM
[11] = second compound 0.1 µM, first compound 3.16 µM
[12] = second compound 0.1 µM, first compound 10 µM
[13] = second compound 0.316 µM, first compound 0.0316 µM
[14] = second compound 0.316 µM, first compound 0.1 µM
[15] = second compound 0.316 µM, first compound 0.316 µM
[16] = second compound 0.316 µM, first compound 1 µM
[17] = second compound 0.316 µM, first compound 3.16 µM
[18] = second compound 0.316 µM, first compound 10 µM
[19] = second compound 1 µM, first compound 0.0316 µM
[20] = second compound 1 µM, first compound 0.1 µM
[21] = second compound 1 µM, first compound 0.316 µM
[22] = second compound 1 µM, first compound 1 µM
[23] = second compound 1 µM, first compound 3.16 µM
[24] = second compound 1 µM, first compound 10 µM
[25] = second compound 3.16 µM, first compound 0.0316 µM
[26] = second compound 3.16 µM, first compound 0.1 µM
[27] = second compound 3.16 µM, first compound 0.316 µM
[28] = second compound 3.16 µM, first compound 1 µM
[29] = second compound 3.16 µM, first compound 3.16 µM
[30] = second compound 3.16 µM, first compound 10 µM
[31] = second compound 10 µM, first compound 0.0316 µM
[32] = second compound 10 µM, first compound 0.1 µM
[33] = second compound 10 µM, first compound 0.316 µM
[34] = second compound 10 µM, first compound 1 µM
[35] = second compound 10 µM, first compound 3.16 µM
[36] = second compound 10 µM, first compound 10 µM
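Note: spheroids exposed to drugs for one week before readout.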
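Throughout, for viability, T/C: percent viability relative to DMSO vehicle control wells set as 100%.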

SMILES: CNCc1ccc(-c2[nH]c3cc(F)cc4c3c2CCNC4=O)cc1 + COC1C(OC(N)=O)C(O)C(Oc2ccc3c(O)c(NC(=O)c4ccc(O)c(CC=C(C)C)c4)c(=O)oc3c2C)OC1(C)C
- IC50 (second compound 0.0316 µM): > 10000 nM
- IC50 (second compound 0.1 µM): > 10000 nM
- IC50 (second compound 0.316 µM): > 10000 nM
- IC50 (second compound 1 µM): > 10000 nM
- IC50 (second compound 3.16 µM): > 10000 nM
- IC50 (second compound 10 µM): > 10000 nM
- viability, T/C [1]: 92%
- viability, T/C [2]: 82.2%
- viability, T/C [3]: 96%
- viability, T/C [4]: 81%
- viability, T/C [5]: 87.7%
- viability, T/C [6]: 76.7%
- viability, T/C [7]: 78.9%
- viability, T/C [8]: 99.9%
- viability, T/C [9]: 77.2%
- viability, T/C [10]: 89.2%
- viability, T/C [11]: 80.1%
- viability, T/C [12]: 81.2%
- viability, T/C [13]: 90.5%
- viability, T/C [14]: 81.1%
- viability, T/C [15]: 84.9%
- viability, T/C [16]: 90.5%
- viability, T/C [17]: 101%
- viability, T/C [18]: 84.6%
- viability, T/C [19]: 77.3%
- viability, T/C [20]: 73.9%
- viability, T/C [21]: 73.8%
- viability, T/C [22]: 89.9%
- viability, T/C [23]: 94.8%
- viability, T/C [24]: 69%
- viability, T/C [25]: 82.3%
- viability, T/C [26]: 93.9%
- viability, T/C [27]: 90.7%
- viability, T/C [28]: 71.2%
- viability, T/C [29]: 88.2%
- viability, T/C [30]: 85.2%
- viability, T/C [31]: 89.8%
- viability, T/C [32]: 79.9%
- viability, T/C [33]: 83.8%
- viability, T/C [34]: 70.5%
- viability, T/C [35]: 84.4%
- viability, T/C [36]: 83%

SMILES: CC1COCCN1c1cc(C2(S(C)(=N)=O)CC2)nc(-c2ccnc3[nH]ccc23)n1 (stereo not drawn) + Cc1cccc(N(C)C(=O)C2C(O)CCN2c2nc(C)cc(C(F)(F)F)c2C#N)c1
- IC50 (second compound 0.0316 µM): 4550 nM
- IC50 (second compound 0.1 µM): 5510 nM
- IC50 (second compound 0.316 µM): 4700 nM
- IC50 (second compound 1 µM): 4960 nM
- IC50 (second compound 3.16 µM): 4390 nM
- IC50 (second compound 10 µM): 4050 nM
- viability, T/C [1]: 117%
- viability, T/C [2]: 93.9%
- viability, T/C [3]: 93.8%
- viability, T/C [4]: 101%
- viability, T/C [5]: 59.2%
- viability, T/C [6]: 30.1%
- viability, T/C [7]: 104%
- viability, T/C [8]: 91.2%
- viability, T/C [9]: 100%
- viability, T/C [10]: 81.2%
- viability, T/C [11]: 76.2%
- viability, T/C [12]: 25.8%
- viability, T/C [13]: 107%
- viability, T/C [14]: 90.9%
- viability, T/C [15]: 98.6%
- viability, T/C [16]: 79.5%
- viability, T/C [17]: 60.7%
- viability, T/C [18]: 29.7%
- viability, T/C [19]: 117%
- viability, T/C [20]: 101%
- viability, T/C [21]: 96.4%
- viability, T/C [22]: 110%
- viability, T/C [23]: 60.5%
- viability, T/C [24]: 33.6%
- viability, T/C [25]: 91.6%
- viability, T/C [26]: 117%
- viability, T/C [27]: 95.2%
- viability, T/C [28]: 103%
- viability, T/C [29]: 59%
- viability, T/C [30]: 27.4%
- viability, T/C [31]: 80.4%
- viability, T/C [32]: 112%
- viability, T/C [33]: 87.8%
- viability, T/C [34]: 89%
- viability, T/C [35]: 56.7%
- viability, T/C [36]: 25.5%

SMILES: CC1COCCN1c1cc(C2(O)CC3CCC(C2)O3)c2cnn(-c3ccn[nH]3)c2n1 (stereo not drawn) + Nc1ccc(C#CCN(C(=O)Cc2ncc(C(F)(F)F)cc2C(F)(F)F)c2ccc(F)cc2)nn1
- IC50 (second compound 0.0316 µM): 197 nM
- IC50 (second compound 0.1 µM): 200 nM
- IC50 (second compound 0.316 µM): 191 nM
- IC50 (second compound 1 µM): 199 nM
- IC50 (second compound 3.16 µM): 198 nM
- IC50 (second compound 10 µM): 186 nM
- viability, T/C [1]: 96.6%
- viability, T/C [2]: 66.5%
- viability, T/C [3]: 40.1%
- viability, T/C [4]: 14.8%
- viability, T/C [5]: 8.94%
- viability, T/C [6]: 4.04%
- viability, T/C [7]: 105%
- viability, T/C [8]: 69.9%
- viability, T/C [9]: 36.8%
- viability, T/C [10]: 16.9%
- viability, T/C [11]: 10.6%
- viability, T/C [12]: 4.15%
- viability, T/C [13]: 102%
- viability, T/C [14]: 68.9%
- viability, T/C [15]: 33.4%
- viability, T/C [16]: 19.8%
- viability, T/C [17]: 9.43%
- viability, T/C [18]: 3.41%
- viability, T/C [19]: 88.3%
- viability, T/C [20]: 71%
- viability, T/C [21]: 35.8%
- viability, T/C [22]: 14%
- viability, T/C [23]: 9.22%
- viability, T/C [24]: 3.83%
- viability, T/C [25]: 82.5%
- viability, T/C [26]: 69%
- viability, T/C [27]: 36.6%
- viability, T/C [28]: 15.3%
- viability, T/C [29]: 8.76%
- viability, T/C [30]: 3.76%
- viability, T/C [31]: 73.6%
- viability, T/C [32]: 75.1%
- viability, T/C [33]: 29.3%
- viability, T/C [34]: 15.8%
- viability, T/C [35]: 10.8%
- viability, T/C [36]: 3.69%

SMILES: C=CCn1c(=O)c2cnc(Nc3ccc(N4CCN(C)CC4)cc3)nc2n1-c1cccc(C(C)(C)O)n1 + Nc1ccc(C#CCN(C(=O)Cc2ncc(C(F)(F)F)cc2C(F)(F)F)c2ccc(F)cc2)nn1
- IC50 (second compound 0.0316 µM): 584 nM
- IC50 (second compound 0.1 µM): 626 nM
- IC50 (second compound 0.316 µM): 670 nM
- IC50 (second compound 1 µM): 457 nM
- IC50 (second compound 3.16 µM): 618 nM
- IC50 (second compound 10 µM): 263 nM
- viability, T/C (second compound 0.0316 µM, first compound 0.00316 µM): 100%
- viability, T/C (second compound 0.0316 µM, first compound 0.01 µM): 97.9%
- viability, T/C [1]: 80.7%
- viability, T/C [2]: 63%
- viability, T/C [3]: 57.5%
- viability, T/C [4]: 44.9%
- viability, T/C (second compound 0.1 µM, first compound 0.00316 µM): 122%
- viability, T/C (second compound 0.1 µM, first compound 0.01 µM): 90.6%
- viability, T/C [7]: 92.3%
- viability, T/C [8]: 81.3%
- viability, T/C [9]: 56.1%
- viability, T/C [10]: 43.3%
- viability, T/C (second compound 0.316 µM, first compound 0.00316 µM): 109%
- viability, T/C (second compound 0.316 µM, first compound 0.01 µM): 95.7%
- viability, T/C [13]: 95%
- viability, T/C [14]: 80.5%
- viability, T/C [15]: 64.6%
- viability, T/C [16]: 42%
- viability, T/C (second compound 1 µM, first compound 0.00316 µM): 116%
- viability, T/C (second compound 1 µM, first compound 0.01 µM): 94.4%
- viability, T/C [19]: 80.5%
- viability, T/C [20]: 72.7%
- viability, T/C [21]: 57.1%
- viability, T/C [22]: 37.6%
- viability, T/C (second compound 3.16 µM, first compound 0.00316 µM): 103%
- viability, T/C (second compound 3.16 µM, first compound 0.01 µM): 88.9%
- viability, T/C [25]: 80%
- viability, T/C [26]: 84.4%
- viability, T/C [27]: 60.2%
- viability, T/C [28]: 40.6%
- viability, T/C (second compound 10 µM, first compound 0.00316 µM): 76.5%
- viability, T/C (second compound 10 µM, first compound 0.01 µM): 95.2%
- viability, T/C [31]: 88.9%
- viability, T/C [32]: 67.3%
- viability, T/C [33]: 49.1%
- viability, T/C [34]: 42.6%
